# According to the supplement of paper PMC10307832:
# Tests used:
# Test in all cases: relative viability (nuclei count vs DMSO), 5 days (fraction); higher = more cells survive
# QS11 + Pictilisib = compound: C1CC2=C(C1)C=C(C=C2)OC3=NC(=C4C(=N3)N(C=N4)CC5=CC=C(C=C5)C6=CC=CC=C6)N[C@@H](CC7=CC=CC=C7)CO [QS11] + CS(=O)(=O)N1CCN(Cc2cc3nc(-c4cccc5[nH]ncc45)nc(N4CCOCC4)c3s2)CC1 [Pictilisib] (partner 1 µM)
# How it was run: (§1)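 Medians of duplicate plates are given as relative viability. That measure is the nuclei count in treated wells divided by the count in vehicle wells. Counts were taken on 4× images of lung cancer cell lines in 1536-well plates, 5 days after pin-tool dosing the day after seeding with one drug alone or a fixed anchor-drug dose plus five library-drug doses (not always all listed) in √10 steps.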
# QS11 + Decitabine = compound: C1CC2=C(C1)C=C(C=C2)OC3=NC(=C4C(=N3)N(C=N4)CC5=CC=C(C=C5)C6=CC=CC=C6)N[C@@H](CC7=CC=CC=C7)CO [QS11] + Nc1ncn([C@H]2C[C@H](O)[C@@H](CO)O2)c(=O)n1 [Decitabine] (partner 2 µM)
# How it was run: as §1
# AZ628 + Pictilisib = compound: CC1=C(C=C(C=C1)NC(=O)C2=CC(=CC=C2)C(C)(C)C#N)NC3=CC4=C(C=C3)N=CN(C4=O)C [AZ628] + CS(=O)(=O)N1CCN(Cc2cc3nc(-c4cccc5[nH]ncc45)nc(N4CCOCC4)c3s2)CC1 [Pictilisib] (partner 1 µM)
# How it was run: as §1
# [1] = compound: C[As](C)SC[C@H](NC(=O)CC[C@H](N)C(=O)O)C(=O)NCC(=O)O [Darinaparsin] + CS(=O)(=O)N1CCN(Cc2cc3nc(-c4cccc5[nH]ncc45)nc(N4CCOCC4)c3s2)CC1 [Pictilisib] (partner 1 µM)
# How it was run: as §1
Cell Line,relative viability (QS11 + Pictilisib; first compound 0.08 µM),relative viability (QS11 + Pictilisib; first compound 0.253 µM),relative viability (QS11 + Pictilisib; first compound 0.8 µM),relative viability (QS11 + Pictilisib; first compound 2.53 µM),relative viability (QS11 + Pictilisib; first compound 8 µM),relative viability (QS11 + Decitabine; first compound 0.08 µM),relative viability (QS11 + Decitabine; first compound 0.253 µM),relative viability (QS11 + Decitabine; first compound 0.8 µM),relative viability (QS11 + Decitabine; first compound 2.53 µM),relative viability (QS11 + Decitabine; first compound 8 µM),relative viability (AZ628 + Pictilisib; first compound 0.08 µM),relative viability (AZ628 + Pictilisib; first compound 0.253 µM),relative viability (AZ628 + Pictilisib; first compound 0.8 µM),relative viability (AZ628 + Pictilisib; first compound 2.53 µM),relative viability (AZ628 + Pictilisib; first compound 8 µM),relative viability ([1]; first compound 0.08 µM),relative viability ([1]; first compound 0.8 µM),relative viability ([1]; first compound 2.53 µM),relative viability ([1]; first compound 8 µM)
NCI-H1793,0.259,0.329,0.356,0.309,0.31,0.474,0.424,0.51,0.477,0.453,0.345,0.202,0.32,0.275,0.196,0.25,0.31,0.355,0.299
HARA,0.358,0.46,–,0.383,0.36,0.508,–,0.36,0.605,0.389,0.331,0.379,0.283,0.337,0.287,0.393,0.371,0.324,0.413
NCI-H2347,0.537,0.715,0.699,0.606,0.666,0.587,0.563,0.582,0.694,0.659,0.321,0.437,0.312,0.32,0.287,0.708,0.636,0.694,0.783
ABC-1,0.657,0.6,0.651,0.764,1.06,0.946,1.04,0.907,1.12,0.949,0.764,0.828,0.677,0.643,0.486,0.793,0.648,0.738,0.904
NCI-H2342,–,–,–,–,–,0.744,0.724,0.715,0.718,0.77,–,–,–,–,–,–,–,–,–
NCI-H2126,0.489,0.444,0.503,0.501,0.476,0.588,0.63,0.573,0.574,0.473,0.533,0.549,0.537,0.513,0.457,0.506,0.499,0.474,0.533
HOP-62,0.822,0.688,0.738,0.514,0.435,0.244,0.241,0.189,0.208,0.233,0.607,0.6,0.511,0.441,0.211,0.99,0.588,0.774,1.04
NCI-H2085,0.432,0.404,0.456,0.432,0.519,0.478,0.549,0.49,0.56,0.557,0.506,0.413,0.408,0.386,0.378,0.553,0.419,0.455,0.44
NCI-H1944,0.331,0.346,–,0.353,0.39,0.393,0.421,–,0.419,0.366,0.359,0.321,0.322,0.29,0.321,0.359,0.307,0.348,0.374
EMC-BAC-2,0.535,0.486,0.569,0.604,0.442,0.939,1.07,0.842,0.913,0.854,0.511,0.476,0.455,0.459,0.466,0.607,0.501,0.582,0.568
NCI-H2228,0.254,0.507,0.513,0.427,0.319,–,–,–,–,–,0.397,0.32,0.368,0.329,0.264,0.401,0.344,0.473,0.544
A-427,0.546,0.788,–,0.608,0.824,0.523,0.561,–,0.613,0.674,0.43,0.364,0.333,0.177,0.132,0.893,0.761,0.757,0.856
EPLC-272H,0.372,0.347,0.298,0.387,0.274,–,0.382,0.388,0.385,0.341,0.273,0.232,0.236,0.266,0.231,0.295,0.332,0.266,0.311
A549,0.623,0.558,0.396,0.41,0.208,0.224,0.215,0.271,0.214,0.212,0.473,0.378,0.311,0.406,0.138,0.601,0.517,0.344,0.653
NCI-H358,0.338,0.315,0.387,0.564,0.553,0.213,0.213,0.227,0.266,0.207,0.341,0.289,0.286,0.308,0.349,0.315,0.319,0.343,0.319
NCI-H2009,0.726,0.776,0.747,0.711,0.626,0.362,0.426,0.364,0.409,0.371,0.512,0.311,0.291,0.277,0.226,0.94,0.759,0.815,0.711
HCC-827,0.881,1.03,0.953,1.13,0.95,0.343,0.33,0.308,0.336,0.337,0.98,0.994,0.988,0.984,0.826,1.06,0.907,0.901,1.01

Cell Line,relative viability (QS11 + Pictilisib; first compound 0.08 µM),relative viability (QS11 + Pictilisib; first compound 0.253 µM),relative viability (QS11 + Pictilisib; first compound 0.8 µM),relative viability (QS11 + Pictilisib; first compound 2.53 µM),relative viability (QS11 + Pictilisib; first compound 8 µM),relative viability (QS11 + Decitabine; first compound 0.08 µM),relative viability (QS11 + Decitabine; first compound 0.253 µM),relative viability (QS11 + Decitabine; first compound 0.8 µM),relative viability (QS11 + Decitabine; first compound 2.53 µM),relative viability (QS11 + Decitabine; first compound 8 µM),relative viability (AZ628 + Pictilisib; first compound 0.08 µM),relative viability (AZ628 + Pictilisib; first compound 0.253 µM),relative viability (AZ628 + Pictilisib; first compound 0.8 µM),relative viability (AZ628 + Pictilisib; first compound 2.53 µM),relative viability (AZ628 + Pictilisib; first compound 8 µM),relative viability ([1]; first compound 0.08 µM),relative viability ([1]; first compound 0.8 µM),relative viability ([1]; first compound 2.53 µM),relative viability ([1]; first compound 8 µM)
NCI-H322M,0.55,0.483,0.492,0.545,0.49,0.741,0.739,0.672,0.801,0.935,0.554,0.473,0.482,0.469,0.412,0.58,0.495,0.469,0.59
NCI-H1755,0.466,0.404,0.41,0.408,0.393,0.625,0.715,0.535,0.685,0.671,0.378,0.346,0.29,0.275,0.203,0.461,0.398,0.355,0.38
LU99A,0.343,0.317,0.357,0.296,0.307,0.873,0.967,0.963,0.922,0.931,0.274,0.306,0.362,0.331,0.205,0.336,0.313,0.294,0.322
HCC-44,0.804,0.432,0.565,0.406,0.431,1.08,0.936,0.572,0.922,0.916,0.547,0.512,0.427,0.354,0.286,0.852,0.574,0.44,0.677
EBC-1,0.331,0.266,0.404,0.454,0.478,–,–,–,–,–,0.341,0.299,0.271,0.233,0.201,0.393,0.359,0.433,0.288
NCI-H647,–,0.379,0.41,0.685,0.478,0.391,0.44,0.349,0.374,0.309,0.385,0.163,0.313,0.247,0.27,0.449,0.396,0.488,0.47
NCI-H1734,0.44,0.433,0.408,0.38,0.358,0.538,0.532,0.478,0.457,0.51,0.432,0.359,0.351,0.367,0.306,0.534,0.473,0.421,0.559
NCI-H1703,0.281,0.242,0.264,0.253,0.344,–,–,–,–,–,0.231,0.235,0.235,0.197,0.251,0.236,0.271,0.261,0.268
NCI-H1563,0.718,0.703,0.68,0.586,0.617,–,–,–,–,–,0.613,0.667,0.657,0.658,0.616,0.693,0.63,0.594,0.602
CAL-12T,0.446,0.412,0.665,0.314,0.38,–,–,–,–,–,0.393,–,0.416,0.298,0.505,0.392,0.335,0.473,0.478
Calu-6,1.02,0.907,0.918,1.15,1,–,–,–,–,–,0.896,0.64,0.409,0.553,0.144,1.2,0.801,0.924,0.988
SW 900,–,–,–,–,–,0.37,0.475,0.413,0.491,0.412,–,–,–,–,–,–,–,–,–
NCI-H1299,0.725,0.791,0.648,0.736,0.567,–,–,–,–,–,0.643,0.464,0.306,0.283,0.167,1.03,0.882,0.751,0.808
NCI-H522,–,–,–,–,–,0.704,0.569,0.677,0.664,0.726,–,–,–,–,–,–,–,–,–
NCI-H1648,–,–,–,–,–,0.516,0.436,0.476,0.443,0.665,–,–,–,–,–,–,–,–,–
IA-LM,0.387,0.343,–,0.257,0.354,–,–,–,–,–,0.352,0.231,0.155,0.145,0.115,0.414,0.408,0.949,0.313
